Test results as given in publication PMC10746543, “Design principles for cyclin K molecular glue degraders” (Nature Chemical Biology, 2023).
“And” between values parts separate entries of the source, which are not always exact repeats. Identical values can stand only once. Like-named read-outs stand apart in the source and are kept apart here.

How the values were obtained:
CDK9–cyclin T = target: T1, CDK9–cyclin T (Homo sapiens, UniProt P50750); test: Lanthascreen kinase binding assay, CDK9; details: for Lanthascreen TR-FRET signal (raw ratio), sheet CDK9: third titration set (r25), duplicates
T1 construct: purchased Thermo Fisher
T1 sequence (P50750 whole entry): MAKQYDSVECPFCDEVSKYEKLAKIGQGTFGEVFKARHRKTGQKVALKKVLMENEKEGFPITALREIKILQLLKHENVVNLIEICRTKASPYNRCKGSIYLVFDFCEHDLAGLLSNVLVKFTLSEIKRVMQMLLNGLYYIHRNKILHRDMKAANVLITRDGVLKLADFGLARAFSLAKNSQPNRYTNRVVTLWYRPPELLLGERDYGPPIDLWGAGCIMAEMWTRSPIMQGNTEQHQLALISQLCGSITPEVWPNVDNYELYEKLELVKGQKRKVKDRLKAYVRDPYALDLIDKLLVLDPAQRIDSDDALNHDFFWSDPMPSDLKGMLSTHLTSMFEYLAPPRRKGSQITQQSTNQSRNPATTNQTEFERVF
T1 sequence (O60563 whole entry partner): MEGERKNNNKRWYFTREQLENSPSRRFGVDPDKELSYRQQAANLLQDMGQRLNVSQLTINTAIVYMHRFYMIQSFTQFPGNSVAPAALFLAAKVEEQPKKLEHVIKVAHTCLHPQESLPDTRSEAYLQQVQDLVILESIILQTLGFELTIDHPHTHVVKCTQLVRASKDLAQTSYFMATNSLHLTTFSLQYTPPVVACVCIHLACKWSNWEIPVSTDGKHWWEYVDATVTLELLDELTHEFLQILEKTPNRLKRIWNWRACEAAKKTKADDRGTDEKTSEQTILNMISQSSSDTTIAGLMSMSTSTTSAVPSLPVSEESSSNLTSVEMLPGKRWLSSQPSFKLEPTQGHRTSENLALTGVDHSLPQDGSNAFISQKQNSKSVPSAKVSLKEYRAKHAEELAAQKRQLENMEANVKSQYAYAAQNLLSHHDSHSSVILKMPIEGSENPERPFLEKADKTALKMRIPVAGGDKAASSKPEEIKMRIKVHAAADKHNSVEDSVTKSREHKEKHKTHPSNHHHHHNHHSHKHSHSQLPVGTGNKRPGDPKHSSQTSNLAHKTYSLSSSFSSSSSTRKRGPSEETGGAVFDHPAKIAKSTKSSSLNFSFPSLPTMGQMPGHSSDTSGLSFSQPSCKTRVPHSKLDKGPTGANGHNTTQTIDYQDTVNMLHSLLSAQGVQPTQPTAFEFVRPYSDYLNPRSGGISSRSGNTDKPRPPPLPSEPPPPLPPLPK
Method: (§1) Lanthascreen experiments were performed using commercially available reagents (Thermo Fisher) and according to the manufacturer’s instructions.

CDK2–cyclin A = target: T2, CDK2–cyclin A (Homo sapiens, UniProt P24941); test: Lanthascreen kinase binding assay, CDK2; details: for Lanthascreen signal, sheet CDK2: raw replicates, experiment r36-r46
T2 construct: purchased Thermo Fisher
Method: as §1

CDK12–cyclin K = CDK12–cyclin K (Homo sapiens, UniProt Q9NYV4); test: Lanthascreen kinase binding assay, CDK12; details: for Lanthascreen raw signal, sheet CDK12: series r37, duplicates
Sequence of CDK12–cyclin K (Q9NYV4 713-1052): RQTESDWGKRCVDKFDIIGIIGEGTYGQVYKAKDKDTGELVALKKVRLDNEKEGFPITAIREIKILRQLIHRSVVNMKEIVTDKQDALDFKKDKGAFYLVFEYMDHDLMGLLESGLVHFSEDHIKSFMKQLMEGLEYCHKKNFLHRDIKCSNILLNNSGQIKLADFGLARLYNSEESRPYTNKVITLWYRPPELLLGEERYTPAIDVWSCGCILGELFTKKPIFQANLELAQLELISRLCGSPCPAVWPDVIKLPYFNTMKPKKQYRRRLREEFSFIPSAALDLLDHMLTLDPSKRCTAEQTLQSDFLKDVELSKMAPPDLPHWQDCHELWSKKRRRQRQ
Sequence of CDK12–cyclin K (O75909 1-267 partner limits assumed): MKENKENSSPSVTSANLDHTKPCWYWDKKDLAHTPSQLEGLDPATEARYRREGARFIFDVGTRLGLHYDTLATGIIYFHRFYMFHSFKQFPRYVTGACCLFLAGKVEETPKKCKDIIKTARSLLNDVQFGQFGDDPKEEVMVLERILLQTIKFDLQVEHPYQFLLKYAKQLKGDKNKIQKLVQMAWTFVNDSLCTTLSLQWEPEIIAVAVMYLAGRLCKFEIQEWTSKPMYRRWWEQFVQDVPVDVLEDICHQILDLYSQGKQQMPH
Method: as §1

[1] = tested on: cyclin K–eGFP degradation reporter; test: Cyclin K reporter stability analysis (dual-color cyclin K–eGFP reporter); assay type: cell-based, human; details: source data sheet correlations; read-out: DC50
Summary of the method: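 First, reporter-bearing HEK293T–Cas9 cells are plated at 1 × 10^6 ml^−1. Next, drug or vehicle is added for 5 h. Finally, geometric-mean eGFP and mCherry signals of round, mCherry-positive cells are measured cytometrically, and their ratio is referenced to the DMSO average.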

CDK12–cyclin K and DDB1 = target: T3, CDK12–cyclin K and DDB1 (Homo sapiens, UniProt Q16531+Q9NYV4, K965R); test: TR-FRET ternary complex formation assay (compound titration); assay type: binding
T3 construct: His6–CDK12 (a.a. 713–1,052); full-length or beta-propeller B domain deletion (ΔBPB: a.a. 396–705 deleted) constructs of His6–DDB1ΔBPB, StrepII–Avi–DDB1, or His6–Spy–DDB1; made in house; host or cells: Trichoplusia ni High Five insect cells (baculovirus)
T3 sequence (Q9NYV4 713-1052 K965R): as the sequence (Q9NYV4 713-1052) above, with K253R counted along it
T3 sequence (O75909 1-267 partner): as the sequence (O75909 1-267 partner limits assumed) above
T3 sequence (Q16531 whole entry): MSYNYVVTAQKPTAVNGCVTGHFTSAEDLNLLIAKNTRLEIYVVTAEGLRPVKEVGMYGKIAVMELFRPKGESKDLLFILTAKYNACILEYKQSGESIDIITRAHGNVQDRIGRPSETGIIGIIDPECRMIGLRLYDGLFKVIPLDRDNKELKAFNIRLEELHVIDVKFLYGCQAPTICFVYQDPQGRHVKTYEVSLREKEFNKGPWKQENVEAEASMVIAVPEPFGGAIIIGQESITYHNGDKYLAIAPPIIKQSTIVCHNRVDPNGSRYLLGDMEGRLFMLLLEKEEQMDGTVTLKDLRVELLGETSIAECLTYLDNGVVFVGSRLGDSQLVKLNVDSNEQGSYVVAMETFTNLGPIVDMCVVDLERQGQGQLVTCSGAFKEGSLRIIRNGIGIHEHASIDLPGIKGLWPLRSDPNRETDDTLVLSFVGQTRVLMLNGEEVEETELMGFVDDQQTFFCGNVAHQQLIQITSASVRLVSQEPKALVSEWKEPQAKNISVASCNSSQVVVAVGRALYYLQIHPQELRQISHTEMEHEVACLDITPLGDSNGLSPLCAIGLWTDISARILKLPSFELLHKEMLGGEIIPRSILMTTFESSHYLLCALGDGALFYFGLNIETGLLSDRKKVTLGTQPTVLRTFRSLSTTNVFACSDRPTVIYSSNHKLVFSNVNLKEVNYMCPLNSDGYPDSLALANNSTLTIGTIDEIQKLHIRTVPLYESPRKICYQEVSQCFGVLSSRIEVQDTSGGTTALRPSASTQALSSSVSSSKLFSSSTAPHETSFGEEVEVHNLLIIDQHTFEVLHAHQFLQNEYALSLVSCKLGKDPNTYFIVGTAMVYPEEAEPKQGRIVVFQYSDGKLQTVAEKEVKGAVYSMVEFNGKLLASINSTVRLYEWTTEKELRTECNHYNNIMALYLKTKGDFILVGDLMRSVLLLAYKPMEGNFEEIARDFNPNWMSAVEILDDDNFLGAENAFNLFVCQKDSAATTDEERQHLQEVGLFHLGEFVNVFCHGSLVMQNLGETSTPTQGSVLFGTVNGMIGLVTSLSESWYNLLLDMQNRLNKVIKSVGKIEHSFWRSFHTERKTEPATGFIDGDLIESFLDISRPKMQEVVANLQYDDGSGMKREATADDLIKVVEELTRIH
Summary of the method: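 Delayed (70 μs) time-resolved read; FRET computed as 520 nm over 490 nm emission.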

HEK293T cells = test: Drug sensitivity assay (CellTiter-Glo viability) with or without MLN4924 pretreatment; assay type: cell-based, human; details: Supplementary Table 2
Summary of the method: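 Viability of HEK293T–Cas9 cells was compared after 3-day drug treatment with or without 100 nM MLN4924 pretreatment (2 h, versus DMSO). Values are CellTiter-Glo signals relative to DMSO controls.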

CC(C)n1cnc2c(NCc3ccc(-c4ccccn4)cc3)nc(N3CCOCC3)nc21 [DS19]
IC50 (CDK9–cyclin T; Supplementary Table 2, read-out: Lanthascreen IC50 [nM] CDK9): 143 nM
Lanthascreen TR-FRET signal (raw ratio), sheet CDK9 (CDK9–cyclin T; compound 0.038147 nM): 0.02142 and 0.0184
Lanthascreen TR-FRET signal (raw ratio), sheet CDK9 (CDK9–cyclin T; compound 0.152588 nM): 0.02078 and 0.0198
Lanthascreen TR-FRET signal (raw ratio), sheet CDK9 (CDK9–cyclin T; compound 0.610352 nM): 0.02132 and 0.01977
Lanthascreen TR-FRET signal (raw ratio), sheet CDK9 (CDK9–cyclin T; compound 9.76563 nM): 0.02157 and 0.01927
Lanthascreen TR-FRET signal (raw ratio), sheet CDK9 (CDK9–cyclin T; compound 39.0625 nM): 0.01848 and 0.01637
Lanthascreen TR-FRET signal (raw ratio), sheet CDK9 (CDK9–cyclin T; compound 156.25 nM): 0.01444 and 0.01311
Lanthascreen TR-FRET signal (raw ratio), sheet CDK9 (CDK9–cyclin T; compound 625 nM): 0.01104 and 0.009432
Lanthascreen TR-FRET signal (raw ratio), sheet CDK9 (CDK9–cyclin T; compound 2500 nM): 0.009751 and 0.009192
Lanthascreen TR-FRET signal (raw ratio), sheet CDK9 (CDK9–cyclin T; compound 10000 nM): 0.008375 and 0.006377
Lanthascreen signal, sheet CDK2 (CDK2–cyclin A; Compound 0.038147 nM): 0.0135 and 0.01393
Lanthascreen signal, sheet CDK2 (CDK2–cyclin A; Compound 0.152588 nM): 0.0137 and 0.01436
Lanthascreen signal, sheet CDK2 (CDK2–cyclin A; Compound 0.610352 nM): 0.01422 and 0.01354
Lanthascreen signal, sheet CDK2 (CDK2–cyclin A; Compound 9.76563 nM): 0.01407 and 0.01385
Lanthascreen signal, sheet CDK2 (CDK2–cyclin A; Compound 39.0625 nM): 0.01288 and 0.01319
Lanthascreen signal, sheet CDK2 (CDK2–cyclin A; Compound 156.25 nM): 0.01128 and 0.01245
Lanthascreen signal, sheet CDK2 (CDK2–cyclin A; Compound 625 nM): 0.01025 and 0.01024
Lanthascreen signal, sheet CDK2 (CDK2–cyclin A; Compound 2500 nM): 0.009848 and 0.009236
Lanthascreen signal, sheet CDK2 (CDK2–cyclin A; Compound 10000 nM): 0.00863 and 0.008753
IC50 (CDK2–cyclin A; Supplementary Table 2, read-out: Lanthascreen IC50 [nM] CDK2): 239 nM
IC50 (CDK12–cyclin K; Supplementary Table 2, read-out: Lanthascreen IC50 [nM] CDK12): 163 nM
Lanthascreen raw signal, sheet CDK12 (CDK12–cyclin K; compound 0.038147 nM): 0.01386 and 0.01388
Lanthascreen raw signal, sheet CDK12 (CDK12–cyclin K; compound 0.152588 nM): 0.01386 and 0.01359
Lanthascreen raw signal, sheet CDK12 (CDK12–cyclin K; compound 0.610352 nM): 0.01429 and 0.01468
Lanthascreen raw signal, sheet CDK12 (CDK12–cyclin K; compound 9.76563 nM): 0.01424 and 0.01408
Lanthascreen raw signal, sheet CDK12 (CDK12–cyclin K; compound 39.0625 nM): 0.0128 and 0.01286
Lanthascreen raw signal, sheet CDK12 (CDK12–cyclin K; compound 156.25 nM): 0.01155 and 0.01121
Lanthascreen raw signal, sheet CDK12 (CDK12–cyclin K; compound 625 nM): 0.01099 and 0.009814
Lanthascreen raw signal, sheet CDK12 (CDK12–cyclin K; compound 2500 nM): 0.009116 and 0.009896
Lanthascreen raw signal, sheet CDK12 (CDK12–cyclin K; compound 10000 nM): 0.008961 and 0.008941
DC50 [1]: 0.062 µM
TR-FRET signal at compound concentration 0.468 nM (CDK12–cyclin K and DDB1; raw replicate titration data): 0.2796 and 0.2825 and 0.2274 and 0.2285
TR-FRET signal at compound concentration 0.468 nM (CDK12–cyclin K and DDB1; raw titration data): 0.2796 and 0.2825 and 0.2274 and 0.2285
TR-FRET signal at compound concentration 2.16 nM (CDK12–cyclin K and DDB1; raw replicate titration data): 0.4207 and 0.4231 and 0.3525 and 0.3569
TR-FRET signal at compound concentration 2.16 nM (CDK12–cyclin K and DDB1; raw titration data): 0.4207 and 0.4231 and 0.3525 and 0.3569
TR-FRET signal at compound concentration 3.6 nM (CDK12–cyclin K and DDB1; raw replicate titration data): 0.7048 and 0.756 and 0.6232 and 0.6327
TR-FRET signal at compound concentration 3.6 nM (CDK12–cyclin K and DDB1; raw titration data): 0.7048 and 0.756 and 0.6232 and 0.6327
TR-FRET signal at compound concentration 7.92001 nM (CDK12–cyclin K and DDB1; raw replicate titration data): 1.442 and 1.475 and 1.209 and 1.266
TR-FRET signal at compound concentration 7.92001 nM (CDK12–cyclin K and DDB1; raw titration data): 1.442 and 1.475 and 1.209 and 1.266
TR-FRET signal at compound concentration 15.84 nM (CDK12–cyclin K and DDB1; raw replicate titration data): 2.559 and 2.574 and 2.155 and 2.284
TR-FRET signal at compound concentration 15.84 nM (CDK12–cyclin K and DDB1; raw titration data): 2.559 and 2.574 and 2.155 and 2.284
TR-FRET signal at compound concentration 30.96 nM (CDK12–cyclin K and DDB1; raw replicate titration data): 3.476 and 3.44 and 3.283 and 3.355
TR-FRET signal at compound concentration 30.96 nM (CDK12–cyclin K and DDB1; raw titration data): 3.476 and 3.44 and 3.283 and 3.355
TR-FRET signal at compound concentration 62.6401 nM (CDK12–cyclin K and DDB1; raw replicate titration data): 3.895 and 3.93 and 3.8348 and 3.842
TR-FRET signal at compound concentration 62.6401 nM (CDK12–cyclin K and DDB1; raw titration data): 3.895 and 3.93 and 3.8348 and 3.842
TR-FRET signal at compound concentration 125.28 nM (CDK12–cyclin K and DDB1; raw replicate titration data): 4.03 and 4.166 and 4.089 and 4.0346
TR-FRET signal at compound concentration 125.28 nM (CDK12–cyclin K and DDB1; raw titration data): 4.03 and 4.166 and 4.089 and 4.0346
TR-FRET signal at compound concentration 244.8 nM (CDK12–cyclin K and DDB1; raw replicate titration data): 3.953 and 4.0607 and 4.092 and 4.114
TR-FRET signal at compound concentration 244.8 nM (CDK12–cyclin K and DDB1; raw titration data): 3.953 and 4.0607 and 4.092 and 4.114
TR-FRET signal at compound concentration 993.601 nM (CDK12–cyclin K and DDB1; raw replicate titration data): 4.102 and 4.235 and 4.304 and 4.258
TR-FRET signal at compound concentration 993.601 nM (CDK12–cyclin K and DDB1; raw titration data): 4.102 and 4.235 and 4.304 and 4.258
TR-FRET signal at compound concentration 2001.6 nM (CDK12–cyclin K and DDB1; raw replicate titration data): 4.005 and 4.144 and 4.249 and 4.271
TR-FRET signal at compound concentration 2001.6 nM (CDK12–cyclin K and DDB1; raw titration data): 4.005 and 4.144 and 4.249 and 4.271
EC50 (CDK12–cyclin K and DDB1; in vitro complex formation, 50 nM CDK12–cyclin K, 100 nM DDB1, text and figures, read-out: TR-FRET EC50): 0.014 ± 0.0003 µM
EC50 (CDK12–cyclin K and DDB1; sheet MOESM7, read-out: log TR-FRET EC50 (converted)): 0.014 µM
EC50 (HEK293T cells; Homo sapiens, HEK-293T, HEK293T viability, 72 h, compound alone, read-out: Cellular assays EC50): 0.203 µM
Toxicity rescue (HEK293T cells; MLN4924-mediated cytotoxicity rescue, 10 µM used where n.d.): 300%
